Assay results published in patent US9884856B2, “Crystal form of Dabrafenib mesylate and preparation method thereof” (Hangzhou Pushai Pharmaceutical Technology Co., LTD., priority 2013, dated 2018).
Values joined by “and” are separate entries in the source; they are usually repeats but may differ in a detail not shown here. Equal values may be shown once. “Also recorded” adds a separate entry of the source.

Legend:
[1] = Storage stability of crystal forms (XRPD before and after placement); assay type: physicochemical; details: methanesulfonate
Procedure: (§1) The stability is performed by comparing the storage stability and the stirring test in water on crystalline forms.
The storage stability is performed by placing the samples under a constant condition (i.e. under constant humidity or constant temperature) for a certain period of time, and then comparing their XRPDs before and after placement.

[2] = Stirring test in water (XRPD comparison); assay type: physicochemical; details: methanesulfonate; for Stirring test in water: form after stirring: 10 mg in 1 mL water; for Stability in water or aqueous system(s): general statement
Procedure: as §1
The stirring test in water is performed by, for each crystalline form, adding an equal amount of the sample (10 mg) to an equal amount of water (1 mL) to form a suspension, stirring the suspensions for a certain time at room temperature, and then comparing their XRPDs.

[3] = Hygroscopicity by dynamic vapor sorption (DVS); assay type: physicochemical
Procedure: The dynamic vapor sorption analysis (DVS) data are collected by TA Instruments Q5000 TGA; the instrument control software is Thermal Advantage and the analysis software is Universal Analysis. Generally, take 1˜10 mg of the sample and place it in a platinum pan, and the weight changes of the sample are recorded during the course of the relative humidity changing from 0% to 80% and then to 0%. According to the specifics of the samples, different adsorption and desorption steps may be used.
Compare hygroscopicity in weight changes of samples between 20%-80% RH obtained by DVS tests.

[4] = Dissolution profile in ultrapure water (HPLC); assay type: physicochemical; details: for Dissolution: ultrapure water
Procedure: The analysis data of high performance liquid chromatography (HPLC) are collected by Agilent 1260 with the chemical working station of B.04. The corresponding HPLC parameters in this research are: chromatographic column SB-C18 250×4.6 mm 5 μm; column temperature 35° C.; flow rate 0.6 mL/min; flow phase as shown below; wavelength 254 nm; sample inject volume 20 μl; operation time 30 min.
The comparison of dissolution profiles is performed by the following procedures: place about 6 mg the sample in a […], add 15 mL ultrapure water, and then seal the vial. A suspension is obtained from sonication with a working power of 40 Khz at room temperature, then take 1 mL of the suspension at 10 min, 30 min, 2 hr and 6 hr, respectively; filter it with 0.45 μm organic filter membrane to, take the filtrate to be measured by HPLC; stir the remaining suspension for 16 hr at room temperature, and then filter it with 0.45 μm organic filter membrane, take the filtrate to be measured by HPLC. FIG. 15 is the comparison plot of dissolution profiles of Crystal Form IV and the Known Crystal Form I in Experimental Example 1 (▴ refers to Crystal Form IV, ▮ refers to the Known Crystal Form I).

[5] = Stability during wet granulation in formulation process (XRPD); assay type: physicochemical; details: methanesulfonate; for Form of API in wet granule sample (XRPD): wet granulation with 50% aqueous ethanol, lactose monohydrate, microcrystalline cellulose
Description: The stability of the Known Crystal Form I of Dabrafenib methanesulfonate and Crystal Form IV of the present invention during wet granulation in formulation process was studied.
Wet granulation experiments in the formulation process were parallel experiments. The specific steps are:
1) Blend API (the Known Crystal Form I or Crystal Form IV of the present invention), lactose (monohydrate) and microcrystalline cellulose uniformly.
2) Make the above mixture into soft materials by using appropriate amount of 50% aqueous ethanol solution, screen to produce wet granules.
3) Dry the wet granules and then granulate them, blend with polyethylene glycol 6000 uniformly and then compress them into tablets.
Characterize the Known Crystal Form I and Crystal Form IV of the present invention samples obtained from the formulation process of: (1) the sample obtained from physically mixing lactose monohydrate and microcrystalline cellulose at the ratios per the formulation; (2) the sample obtained from physically mixing of API, lactose monohydrate and microcrystalline cellulose at the ratios per the formulation; (3) the wet granule sample obtained from the wet granulation process (excluding the compressed tablets in Step 3). See XRPDs in FIG. 16 and FIG. 17.

[6] = Decomposition temperature by TGA; assay type: physicochemical; details: methanesulfonate
Procedure: The thermogravimetric analysis (TGA) data are collected by TA Instruments Q500 TGA; the instrument control software is Thermal Advantage and the analysis software is Universal Analysis. Generally, take 5˜15 mg sample and place it in a platinum pan, adopt the segmental high-resolution testing mode, and under the protection of 50 mL/min dry N2, heat the sample from room temperature to 350° C. at the heating rate of 10° C./min, the weight changes of the sample during the course are recorded by TA software simultaneously.
Compare decomposition temperatures obtained by TGA tests.

BRAFV600E-mutan melanoma = details: patients with BRAFV600E-mutan melanoma; cited from earlier work
[7] = tested on: one or more Raf-family kinases; details: disclosed in WO2009/137391 and CN200980126781.6; cited from earlier work
[8] = stored for 1 month at room temperature - 97% RH
[9] = stored for 1 month at room temperature
[10] = stirred 15 min at room temperature
[11] = 6 hours + 16 hours stirring at room temperature, methanesulfonate
[12] = sonication, room temperature, 10 minutes, methanesulfonate
[13] = sonication, room temperature, 30 minutes, methanesulfonate
[14] = sonication, room temperature, 2 hours, methanesulfonate
[15] = sonication, room temperature, 6 hours, methanesulfonate

| Structure (SMILES) | Storage stability (crystal form) [1, 8] | Storage stability (crystal form) [1, 9] | Stirring test in water: form after stirring [2, 10] | Stability in water or aqueous system(s) [2] | Dissolution [4, 11] [mg/mL] | Dissolution [4, 12] [mg/mL] | Dissolution [4, 13] [mg/mL] | Dissolution [4, 14] [mg/mL] | Dissolution [4, 15] [mg/mL] | Stability in the wet granulation process [5] | Form of API in wet granule sample (XRPD) [5] | other results |
| --- | --- | --- | --- | --- | --- | --- | --- | --- | --- | --- | --- | --- |
| CC(C)(C)c1nc(-c2cccc(NS(=O)(=O)c3c(F)cccc3F)c2F)c(-c2ccnc(N)n2)s1 [Known Crystal Form I, N-[3-[5-(2-amino-4-pyrimidinyl)-2-(tert-butyl)-thiazol-4-yl]-2-fluorophenyl]-2,6-difluorobenzene sulfonamide methanesulfonate, reference compound] | remained unchanged and 97% RH, respectively, the crystal forms remained unchanged. | remained unchanged and 97% RH, respectively, the crystal forms remained unchanged. | consistent with the above-mentioned Dabrafenib free base hydrate; also recorded: converted to its free base; also recorded: converts to its free base monohydrate; also recorded: min, it converted to the free | readily converts to free base | 7.48e-05 | 0.00012 | 7.23e-05 | 9.28e-05 | 8.88e-05 | unstable | partially or totally converted to Dabrafenib free base hydrate | Form stability under humidity ([3]; 25° C. and 20-80% RH, methanesulfonate): stable at 25 °C and 20-; Hygroscopicity ([3]; DVS): Non-hygroscopic; the form is |
| CC(C)(C)c1nc(-c2cccc(NS(=O)(=O)c3c(F)cccc3F)c2F)c(-c2ccnc(N)n2)s1 [Crystal Form II, N-[3-[5-(2-amino-4-pyrimidinyl)-2-(tert-butyl)-thiazol-4-yl]-2-fluorophenyl]-2,6-difluorobenzene sulfonamide methanesulfonate] | – | – | – | – | – | – | – | – | – | – | – | Decomposition temperature [6]: 287 °C |
| CC(C)(C)c1nc(-c2cccc(NS(=O)(=O)c3c(F)cccc3F)c2F)c(-c2ccnc(N)n2)s1 [Dabrafenib] | – | – | – | – | – | – | – | – | – | – | – | Safety profile (BRAFV600E-mutan melanoma): acceptable safety profile; Therapeutic activity (BRAFV600E-mutan melanoma): has therapeutic activities |
| CC(C)(C)c1nc(-c2cccc(NS(=O)(=O)c3c(F)cccc3F)c2F)c(-c2ccnc(N)n2)s1 [Dabrafenib methanesulfonate, N-[3-[5-(2-amino-4-pyrimidinyl)-2-(tert-butyl)-thiazol-4-yl]-2-fluorophenyl]-2,6-difluorobenzene sulfonamide methanesulfonate] | – | – | – | – | – | – | – | – | – | – | – | Inhibitory effects on Raf-family kinases [7]: exhibited inhibitory effects |
| CC(C)(C)c1nc(-c2cccc(NS(=O)(=O)c3c(F)cccc3F)c2F)c(-c2ccnc(N)n2)s1 [Crystal Form IV, N-[3-[5-(2-amino-4-pyrimidinyl)-2-(tert-butyl)-thiazol-4-yl]-2-fluorophenyl]-2,6-difluorobenzene sulfonamide methanesulfonate] | remained unchanged and stable and 97% RH, respectively, the crystal forms remained unchanged. | remained unchanged and stable and 97% RH, respectively, the crystal forms remained unchanged. | still remained as methanesulfonate; also recorded: still remains its Crystal Form IV of methanesulfonate; also recorded: remained as methanesulfonate and after | better stability in water or aqueous system(s) | 0.000178 | 0.000532 | 0.000303 | 0.000376 | 0.000488 | stable | remained as Crystal Form IV | Stirring test in water: form after stirring ([2]; stirred overnight at room temperature): converted to its free base; also recorded: converts to its free base monohydrate; also recorded: free base (FIG. 14); Weight change (dynamic vapor sorption) ([3]; between 20% RH-80% RH): 2.0%; Dissolution rate / dissolution quantity compared with the Known Crystal Form I ([4]; 0~22 h, any test point, methanesulfonate): higher than that of the Known Crystal Form I at any test point; also recorded: larger than that of the Known Crystal Form I at any test point; Time to the end point in water during dissolution ([4]; compared with the Known Crystal Form I): Form IV is shorter than that of the Known Crystal Form I. |
